Measurements from article PMC8558179, “The C-terminal peptide of CCL21 drastically augments CCL21 activity through the dendritic cell lymph node homing receptor CCR7 by interaction with the receptor N-terminus” (Cellular and Molecular Life Sciences: CMLS, 2021).
Entries after “also recorded” stand apart in the source; their conditions may differ.

B1: CCL21: full-length chemokine (residues 1–111), CCR7 ligand, from R&D Systems (protein, UniProt O00585 24-134, looked up)
C-C motif chemokine 21: SDGGAQDCCLKYSQRKIPAKVVRSYRKQEPSLGCSIPAILFLPRKRSQAELCADPKELWVQQLMQHLDKTPSPQKPAQGCRKDRGASKTGKKGKGSKGCKRTERSQTPKGP

Tests used:
CCR7-N (CCR7 N36/292A) = test: Gαi signaling, BRET cAMP assay, CCR7 lacking N-glycosylation sites; type: cell-based, human; conditions: CCL21 alone or CCL21 + 10 µM TP71-111, CHO cells, n = 3
Procedure: For cAMP assays, adherent CHO cells were transfected using lipofectamine while suspension cells were transfected using the FectoPro method. Cells were seeded in a 6-well plate, either 500,000 (adherent cells) or 200,000 (suspension cells) cells/well. The next day the cells were transiently transfected with vectors encoding the human CCR7 and CAMYEL sensor (cAMP sensor using YFP-Epac-RLuc) in a 1:5 ratio using lipofectamine (6 µl/well) or FectoPro (4 µl/well). Lipofectamine transfections were terminated by changing to 2 ml fresh cultivation medium after 5 h, while Fectopro transfection was terminated after 3 h by adding 2.5 ml fresh cultivation medium and 2 µl FectoPro Boost reagent per well. The cells were incubated under standard cultivation conditions overnight. […] Emission signal from Rluc and eYFP was measured using the Envision machine at 530 and 480 nm and the BRET signal determined as the ratio between (eYFP/Rluc).
Supplementary file 18_2021_3930_MOESM4_ESM.png: Supplementary file4 C21TP boosting ability is not dependent on N-glycosylation sites. […] Signaling was measured in CHO cells quantified using the BRET based cAMP assay. […] Statistical significance was calculated using two-way ANOVA with Tukey’s correction for multiple test. *P<0.05, **P <0.01, ***P<0.001 (PNG 328 KB)

[1] = tested on: human moDCs naturally expressing CCR7; test: 3D chemotaxis, time-lapse recording of human moDCs in Collagen I (chemotactic index); type: cell-based
Procedure: Buffy coats were obtained from Rigshospitalet Copenhagen, as anonymous material, with written informed consent from the donors. The local ethics committee at Faculty of Health and Medical Sciences at the University of Copenhagen (Research Ethics Committee for Sund and Science, University of Copenhagen) found the project exempt from approval. DCs were prepared from human peripheral blood mononuclear cells (PBMC) isolated from buffy coats by centrifugation on a Lymphoprep gradient as previously described. Briefly, monocytes were isolated by plastic adherence of PBMC. Adhered monocytes were subsequently cultured and differentiated into immature DCs by incubation with IL-4 (250 U/ml) and GM-CSF (1000 U/ml) for 6 days, followed by activation into mature DCs by incubation with IL-6 (1000 U/ml), IL-1β (1000 U/ml), TNF-α (1000 U/ml), and PGE2 (1 µg/ml) for an additional 2 days in the same medium.
Human DCs were cultured in X-vivo 15 medium with 2% human AB serum and glutamine. CHO-K1 pgsB-618 ATCC® CRL2241™ [24] and CHO-K1 cells were grown in RPMI with 10% FBS and Penicillin/Streptomycin. HS^−/− (CHO EXTL 2/3 −/−), CS^−/− (CSGALNACT 1/2^−/− CHSY1^−/−), 5xKO (GalNAc-T1, 2, 4, 7 and 10 −/−) and WT CHO suspension cells were grown in suspension in 1:1 of EX-Cell CD CHO fusion media and Balanced CD CHO growth A medium supplemented with 2% glutamine and Penicillin/Streptomycin. Cells were kept in a humidified incubator at 37 °C, 5% CO2.
Chemotaxis assays were conducted as previously described. Briefly, mature human moDCs were left to acclimatize in medium for 30 min at room temperature (RT) upon defrosting, before assay start. DCs were seeded in Bovine Collagen I mixture prepared by mixing 10 µl Na2HCO3 (7.5%), 20 µl MEM (10×), 150 µl PureCol and 90 µl DCs dissolved in X-vivo 15 medium (2 × 10^6 cells/ml). After incubation for 45 min in a humidified incubator at 37 °C (5% CO2), the source and sink reservoirs were filled according to the manufacturer’s instructions and chemotaxis was tracked in a time-lapse microscope with a humidified temperature controlled stage incubator for 12 h at a 2 min interval. Cell migration (approximately 20–40 cells per viewing field) was tracked using a commercial tracking program (Autozell) and subsequently analyzed to get a population-based chemotactic index (CI) value (MATLAB). CI is a measure of net translocation distance to the source relative to total distance traveled and was thus calculated as the ratio of the distance traveled in the direction of the gradient over the total distance traveled and therefore is a conservative measure of the directedness of cell migration.

[2] = molecular target: T1, CCR7^−O (CCR7 T37/38/42A) (Homo sapiens, UniProt P32248, T37A/T38A/T42A); test: Gαi signaling, BRET cAMP assay, CCR7 lacking N-terminal O-glycosylation sites; type: cell-based
T1 construct: CCR7 contains a 24-residue long signal peptide cleaved of from the mature protein; expressed in transfected cells; host or cells: CHO cells, transient transfection
T1 sequence (P32248 25-378 T37A/T38A/T42A): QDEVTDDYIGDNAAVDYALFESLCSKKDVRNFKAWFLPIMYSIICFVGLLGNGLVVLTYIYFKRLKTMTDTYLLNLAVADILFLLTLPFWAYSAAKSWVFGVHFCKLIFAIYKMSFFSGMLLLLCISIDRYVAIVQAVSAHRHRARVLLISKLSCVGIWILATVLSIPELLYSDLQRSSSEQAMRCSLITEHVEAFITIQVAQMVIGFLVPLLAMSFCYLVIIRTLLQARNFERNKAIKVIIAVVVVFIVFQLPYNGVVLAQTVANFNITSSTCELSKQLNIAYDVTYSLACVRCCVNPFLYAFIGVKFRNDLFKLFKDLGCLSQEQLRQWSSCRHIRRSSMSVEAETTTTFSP
Procedure: O-glycosylation deficient CCR7 was generated from WT through Quick change PCR using the following primers: […]
For cAMP assays, adherent CHO cells were transfected using lipofectamine while suspension cells were transfected using the FectoPro method. Cells were seeded in a 6-well plate, either 500,000 (adherent cells) or 200,000 (suspension cells) cells/well. The next day the cells were transiently transfected with vectors encoding the human CCR7 and CAMYEL sensor (cAMP sensor using YFP-Epac-RLuc) in a 1:5 ratio using lipofectamine (6 µl/well) or FectoPro (4 µl/well). Lipofectamine transfections were terminated by changing to 2 ml fresh cultivation medium after 5 h, while Fectopro transfection was terminated after 3 h by adding 2.5 ml fresh cultivation medium and 2 µl FectoPro Boost reagent per well. The cells were incubated under standard cultivation conditions overnight. For β-arrestin recruitment assays, cells were transfected with CCR7 and vectors expressing a Renilla luciferase arrestin3 fusion protein and membrane-SH3-citrine protein. The cells were then resuspended in PBS w/glucose and seeded in 96-well white iso plates (~ 25,000 cells/well). Coelenterazine (bioluminescence substrate) was added to a final conc. of 5 µM. After 10 min, cells were stimulated with varying ligand concentrations for a total of 40 min. Forskolin was added to each well 5 min after ligand addition to reach a final conc. of 5 µM. The plates were kept in the dark at all times. Emission signal from Rluc and eYFP was measured using the Envision machine at 530 and 480 nm and the BRET signal determined as the ratio between (eYFP/Rluc).

| Molecule | effect of removing extracellular N-glycosylation sites on signaling or boosting (CCR7-N) (CCR7-N (CCR7 N36/292A)) | increase of CCL19-induced DC chemotaxis ([1]; 10 nM CCL19 + 10 µM TP71-111, human moDCs, n = 3–6) | fold boost of CCL21-induced DC chemotaxis (immune cell recruiting activity) ([1]; 10 nM CCL21, highest C21TP concentration 10 µM (0.1–10 µM tested), human moDCs, 12 h tracking, 37 °C, n = 3–11) | boosting of CCL21-induced DC chemotaxis ([1]; 10 nM CCL21, peptide 10 µM (0.1–10 µM in the dose series), human moDCs) | DC chemotaxis by C21TP alone ([1]; C21TP without chemokine, data not shown) | boosting of CCL19 signaling by C21TP at CCR7^−O ([2]; CCL19 + 10 µM TP71-111, CCR7^−O vs WT CCR7) | chemotaxis towards chemokine alone ([1]; 10 nM chemokine, no peptide, human moDCs) | chemokine activity on its own at CCR7^−O ([2]; no peptide, CCR7^−O vs WT CCR7) |
| --- | --- | --- | --- | --- | --- | --- | --- | --- |
| TP71-111: free CCL21 C-terminal peptide, residues 71–111 (41 amino acids, positively charged) (PSPQKPAQGCRKDRGASKTGKKGKGSKGCKRTERSQTPKGP; UniProt O00585 94-134, looked up, fragment) | no effect | significantly increased in the presence of 10 µM C21TP (TP71-111), by approximately twofold | up to 25 fold | boosted significantly by the C21TP in a dose-dependent manner | did not induce DC chemotaxis | diminished | – | – |
| B1 | no effect | – | – | – | – | – | very weak chemotactic cue | almost unaffected; also recorded: without affecting basal CCR7 activation via CCL19 and CCL21 |
